Reference: patent publication US9006487B2, “Amine-containing lipids and uses thereof” (Massachusetts Institute of Technology, priority 2005, dated 2015)

tested on: cos-7 cells; assay: DNA transfection: luciferase expression relative to Lipofectamine 2000; type: cell-based; settings: lipid/DNA 2.5 w/w; 300 ng Luciferase DNA per well; luciferase assay after 48 hours
Protocol: 14,000 cos-7 cells (ATCC, Manassas, Va.) were seeded into each well of a solid white or clear 96 well plate (Corning-Costar, Kennebunk, Me.) and allowed to attached overnight in growth medium, composed of: 500 ml phenol red minus DMEM, 50 ml heat inactivated FBS, 5 ml penicillin/streptomycin (Invitrogen, Carlsbad, Calif.).
A small liquot of lipid was tranferred to an Eppendorf tube. Based on the mass of the lipid in the tube, sterile 25 mM sodium acetate buffer was added to each tube to yield a concentration of 60 mg/ml. The resulting mixture was vortexed for approximately 20 minutes until the lipid was fully dissolved. DNA was prepared based on 300 ng DNA per well of a 96-well plate. 291 μg of Lc DNA was dissolved in 9210 μl of 25 mM sodium acetate buffer. Aliquots of 30 μl of DNA solution were added to each well expect for the last column which was reserved for the Lipo2000 standard. For the last column of the plate, 61 μg of DNA was added to 1940 μl Optimem. 150 μl of media/Optimem was added to each well of plates. 50 μl of lipid solution was aliquoted into wells of robot plate. The following amounts were aliquoted to obtain the correct ratios of DNA to lipid:
In quadruplicate, 30 μl of lipid was aliquoted onto DNA in four rows for each ratio. For the Lipo2000 control (2.5 w/w ratio to DNA), 152.5 μg of Lipo sample was aliquoted into 1847.5 μl of Optimem. 30 μl of this solution was aliquoted onto DNA in the Optimem in the last columns of each plate. The plates were incubated for 15-20 minutes, and then 36.5 μl of lipid+DNA complexes was transferred into 150 μl of media/Optimem, then add to cells. The media was aspirated off the cells, and 105 μl of the lipid/DNA/media/Optimem solution was added to the cells. The luciferase assay was performed after 48 hours.
Luminescence was analyzed using bright-glo assay kits (Promega). Briefly, 100 μl of bright-glo solution was added to each well of the microtiter plate containing media and cells. Luminescence was measured using a Mithras Luminometer (Berthold, Oak Ridge, Tenn.). In some cases, a neutral density filter (Chroma, Brattleboro, Vt.) was used to prevent saturation of the luminometer. A standard curve for Luciferase was generated by titration of Luciferase enzyme (Promega) into growth media in white microtiter plates. Luciferase in ng per well are calculated for each of the lipids at 2.5 w/w, 5 w/w, 10 w/w, 15 w/w, 20 w/w, and 25 w/w lipid to DNA based on the standard curve.
The table below summarizes the data as a % of the luciferase activity obtained from the use of Lipofectamine 2000. The table indicates the best lipids for transfection.

Row | Structure (SMILES) | Luciferase expression as a percentage of that achieved using Lipofectamine 2000
1 | CCCCCCCCCCOC(=O)CCN(CCCOC)CCC(=O)OCCCCCCCCCC [LB1] | 0.1%
2 | CCCCCCCCCCOC(=O)CCN(CCC(=O)OCCCCCCCCCC)CCC1OCCO1 [LB6] | 0.1%
3 | CCCCCCCCCCOC(=O)CCN(CCC(=O)OCCCCCCCCCC)CC1COC(C)(C)O1 (stereo not drawn) [LB7] | 0.1%
4 | CCCCCCCCCCOC(=O)CCN(CCOC)CCC(=O)OCCCCCCCCCC [LB10] | 0.1%
5 | CCCCCCCCCCOC(=O)CCN(CCOCC)CCC(=O)OCCCCCCCCCC [LB11] | 0.1%
6 | CCCCCCCCCCOC(=O)CCN(CCC(=O)OCCCCCCCCCC)CC(OC)OC [LB13] | 0.1%
7 | CCCCCCCCCCOC(=O)CCN(CCC(=O)OCCCCCCCCCC)CC1CCCO1 (stereo not drawn) [LB15] | 0.1%
8 | CCCCCCCCCCOC(=O)CCN(CCC(=O)OCCCCCCCCCC)CCc1ccc(OC)c(OC)c1 [LB17] | 0.1%

same assay, conditions: lipid/DNA 5 w/w; 300 ng Luciferase DNA per well; luciferase assay after 48 hours

Row | Structure (SMILES) | Luciferase expression as a percentage of that achieved using Lipofectamine 2000
9 | CCCCCCCCCCOC(=O)CCN(CCCOC)CCC(=O)OCCCCCCCCCC [LB1] | 0.1%
10 | CCCCCCCCCCOC(=O)CCN(CCC(=O)OCCCCCCCCCC)CCC1OCCO1 [LB6] | 0.1%
11 | CCCCCCCCCCOC(=O)CCN(CCC(=O)OCCCCCCCCCC)CC1COC(C)(C)O1 (stereo not drawn) [LB7] | 0.1%
12 | CCCCCCCCCCOC(=O)CCN(CCOC)CCC(=O)OCCCCCCCCCC [LB10] | 0.1%
13 | CCCCCCCCCCOC(=O)CCN(CCOCC)CCC(=O)OCCCCCCCCCC [LB11] | 0.1%
14 | CCCCCCCCCCOC(=O)CCN(CCC(=O)OCCCCCCCCCC)CC(OC)OC [LB13] | 0.1%
15 | CCCCCCCCCCOC(=O)CCN(CCC(=O)OCCCCCCCCCC)CC1CCCO1 (stereo not drawn) [LB15] | 0.1%
16 | CCCCCCCCCCOC(=O)CCN(CCC(=O)OCCCCCCCCCC)CCc1ccc(OC)c(OC)c1 [LB17] | 0.1%

same assay, conditions: lipid/DNA 10 w/w; 300 ng Luciferase DNA per well; luciferase assay after 48 hours

Row | Structure (SMILES) | Luciferase expression as a percentage of that achieved using Lipofectamine 2000
17 | CCCCCCCCCCOC(=O)CCN(CCCOC)CCC(=O)OCCCCCCCCCC [LB1] | 0.1%
18 | CCCCCCCCCCOC(=O)CCN(CCC(=O)OCCCCCCCCCC)CCC1OCCO1 [LB6] | 0.1%
19 | CCCCCCCCCCOC(=O)CCN(CCC(=O)OCCCCCCCCCC)CC1COC(C)(C)O1 (stereo not drawn) [LB7] | 0.1%
20 | CCCCCCCCCCOC(=O)CCN(CCOC)CCC(=O)OCCCCCCCCCC [LB10] | 0.1%
21 | CCCCCCCCCCOC(=O)CCN(CCOCC)CCC(=O)OCCCCCCCCCC [LB11] | 0.1%
22 | CCCCCCCCCCOC(=O)CCN(CCC(=O)OCCCCCCCCCC)CC(OC)OC [LB13] | 0.1%
23 | CCCCCCCCCCOC(=O)CCN(CCC(=O)OCCCCCCCCCC)CC1CCCO1 (stereo not drawn) [LB15] | 0.1%
24 | CCCCCCCCCCOC(=O)CCN(CCC(=O)OCCCCCCCCCC)CCc1ccc(OC)c(OC)c1 [LB17] | 0.1%

same assay, conditions: lipid/DNA 15 w/w; 300 ng Luciferase DNA per well; luciferase assay after 48 hours

Row | Structure (SMILES) | Luciferase expression as a percentage of that achieved using Lipofectamine 2000
25 | CCCCCCCCCCOC(=O)CCN(CCCOC)CCC(=O)OCCCCCCCCCC [LB1] | 0.1%
26 | CCCCCCCCCCOC(=O)CCN(CCC(=O)OCCCCCCCCCC)CCC1OCCO1 [LB6] | 0.1%
27 | CCCCCCCCCCOC(=O)CCN(CCC(=O)OCCCCCCCCCC)CC1COC(C)(C)O1 (stereo not drawn) [LB7] | 0.1%
28 | CCCCCCCCCCOC(=O)CCN(CCOC)CCC(=O)OCCCCCCCCCC [LB10] | 0.1%
29 | CCCCCCCCCCOC(=O)CCN(CCOCC)CCC(=O)OCCCCCCCCCC [LB11] | 0.1%
30 | CCCCCCCCCCOC(=O)CCN(CCC(=O)OCCCCCCCCCC)CC(OC)OC [LB13] | 0.1%
31 | CCCCCCCCCCOC(=O)CCN(CCC(=O)OCCCCCCCCCC)CC1CCCO1 (stereo not drawn) [LB15] | 0.1%
32 | CCCCCCCCCCOC(=O)CCN(CCC(=O)OCCCCCCCCCC)CCc1ccc(OC)c(OC)c1 [LB17] | 0.1%

same assay, conditions: lipid/DNA 20 w/w; 300 ng Luciferase DNA per well; luciferase assay after 48 hours

Row | Structure (SMILES) | Luciferase expression as a percentage of that achieved using Lipofectamine 2000
33 | CCCCCCCCCCOC(=O)CCN(CCCOC)CCC(=O)OCCCCCCCCCC [LB1] | 0.1%
34 | CCCCCCCCCCOC(=O)CCN(CCC(=O)OCCCCCCCCCC)CCC1OCCO1 [LB6] | 0.1%
35 | CCCCCCCCCCOC(=O)CCN(CCC(=O)OCCCCCCCCCC)CC1COC(C)(C)O1 (stereo not drawn) [LB7] | 0.1%
36 | CCCCCCCCCCOC(=O)CCN(CCOC)CCC(=O)OCCCCCCCCCC [LB10] | 0.1%
37 | CCCCCCCCCCOC(=O)CCN(CCOCC)CCC(=O)OCCCCCCCCCC [LB11] | 0.1%
38 | CCCCCCCCCCOC(=O)CCN(CCC(=O)OCCCCCCCCCC)CC(OC)OC [LB13] | 0.1%
39 | CCCCCCCCCCOC(=O)CCN(CCC(=O)OCCCCCCCCCC)CC1CCCO1 (stereo not drawn) [LB15] | 0.1%
40 | CCCCCCCCCCOC(=O)CCN(CCC(=O)OCCCCCCCCCC)CCc1ccc(OC)c(OC)c1 [LB17] | 0.1%

same assay, conditions: lipid/DNA 25 w/w; 300 ng Luciferase DNA per well; luciferase assay after 48 hours

Row | Structure (SMILES) | Luciferase expression as a percentage of that achieved using Lipofectamine 2000
41 | CCCCCCCCCCOC(=O)CCN(CCCOC)CCC(=O)OCCCCCCCCCC [LB1] | 0.2%
42 | CCCCCCCCCCOC(=O)CCN(CCC(=O)OCCCCCCCCCC)CCC1OCCO1 [LB6] | 0.1%
43 | CCCCCCCCCCOC(=O)CCN(CCC(=O)OCCCCCCCCCC)CC1COC(C)(C)O1 (stereo not drawn) [LB7] | 0.2%
44 | CCCCCCCCCCOC(=O)CCN(CCOC)CCC(=O)OCCCCCCCCCC [LB10] | 0.1%
45 | CCCCCCCCCCOC(=O)CCN(CCOCC)CCC(=O)OCCCCCCCCCC [LB11] | 0.1%
46 | CCCCCCCCCCOC(=O)CCN(CCC(=O)OCCCCCCCCCC)CC(OC)OC [LB13] | 0.1%
47 | CCCCCCCCCCOC(=O)CCN(CCC(=O)OCCCCCCCCCC)CC1CCCO1 (stereo not drawn) [LB15] | 0.1%
48 | CCCCCCCCCCOC(=O)CCN(CCC(=O)OCCCCCCCCCC)CCc1ccc(OC)c(OC)c1 [LB17] | 0.1%
